# Measurements: doi:10.1101/2023.11.24.568596v1 (biorxiv, 2023)
# Key:
# Conditions in all cases: binder
# FECH = biological target: T1, FECH (Homo sapiens, UniProt P22830)
# T1 sequence (P22830 1-423): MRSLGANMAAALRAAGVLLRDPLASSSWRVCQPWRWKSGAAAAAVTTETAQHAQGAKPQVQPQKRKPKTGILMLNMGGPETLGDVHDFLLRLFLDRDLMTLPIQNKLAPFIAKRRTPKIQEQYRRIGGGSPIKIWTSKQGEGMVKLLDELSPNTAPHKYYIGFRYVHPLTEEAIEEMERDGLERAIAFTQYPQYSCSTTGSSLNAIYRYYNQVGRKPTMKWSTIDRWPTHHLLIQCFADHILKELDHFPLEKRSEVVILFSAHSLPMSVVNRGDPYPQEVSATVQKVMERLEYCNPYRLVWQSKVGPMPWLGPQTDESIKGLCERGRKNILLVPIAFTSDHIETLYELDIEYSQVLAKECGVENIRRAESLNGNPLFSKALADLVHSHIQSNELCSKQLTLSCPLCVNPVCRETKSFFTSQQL
# GSK3B = GSK3B (Homo sapiens, UniProt P49841)
# SRPK1 = SRPK1 (Homo sapiens, UniProt Q96SB4)
# MARK3 = MARK3 (Homo sapiens, UniProt P27448)
# ULK3 = biological target: T2, ULK3 (Homo sapiens, UniProt Q6PHR2)
# T2 sequence (Q6PHR2 1-472): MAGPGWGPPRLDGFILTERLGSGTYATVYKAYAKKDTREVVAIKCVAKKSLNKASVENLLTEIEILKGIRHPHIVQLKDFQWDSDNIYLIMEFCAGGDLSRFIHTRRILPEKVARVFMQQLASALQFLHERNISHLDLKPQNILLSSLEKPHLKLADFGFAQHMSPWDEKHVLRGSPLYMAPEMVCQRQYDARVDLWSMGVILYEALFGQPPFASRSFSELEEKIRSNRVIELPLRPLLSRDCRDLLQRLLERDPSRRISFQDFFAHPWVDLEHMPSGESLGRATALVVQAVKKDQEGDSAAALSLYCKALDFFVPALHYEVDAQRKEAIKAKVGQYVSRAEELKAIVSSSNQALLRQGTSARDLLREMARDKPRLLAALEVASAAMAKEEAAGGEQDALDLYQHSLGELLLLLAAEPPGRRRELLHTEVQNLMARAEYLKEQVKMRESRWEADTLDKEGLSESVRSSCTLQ
# SRC = SRC (Homo sapiens, UniProt P12931)
# MST4 = MST4 (Homo sapiens, UniProt Q9P289)
# MST2 = biological target: T3, MST2 (Homo sapiens, UniProt Q13188)
# T3 sequence (Q13188 1-491): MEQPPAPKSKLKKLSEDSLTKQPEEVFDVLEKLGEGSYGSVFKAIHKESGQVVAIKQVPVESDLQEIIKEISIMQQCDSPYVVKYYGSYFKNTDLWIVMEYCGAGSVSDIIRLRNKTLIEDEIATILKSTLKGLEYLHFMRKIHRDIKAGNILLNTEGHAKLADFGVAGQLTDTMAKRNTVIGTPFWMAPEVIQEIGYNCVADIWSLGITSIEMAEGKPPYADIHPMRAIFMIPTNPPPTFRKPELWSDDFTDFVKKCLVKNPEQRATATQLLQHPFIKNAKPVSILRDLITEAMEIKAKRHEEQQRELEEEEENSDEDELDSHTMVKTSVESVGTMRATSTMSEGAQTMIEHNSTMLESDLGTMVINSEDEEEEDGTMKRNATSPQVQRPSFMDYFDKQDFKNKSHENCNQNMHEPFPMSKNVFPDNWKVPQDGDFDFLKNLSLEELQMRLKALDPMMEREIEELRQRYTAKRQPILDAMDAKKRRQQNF
# MST1 = biological target: T4, MST1 (Homo sapiens, UniProt Q13043)
# T4 sequence (Q13043 1-487): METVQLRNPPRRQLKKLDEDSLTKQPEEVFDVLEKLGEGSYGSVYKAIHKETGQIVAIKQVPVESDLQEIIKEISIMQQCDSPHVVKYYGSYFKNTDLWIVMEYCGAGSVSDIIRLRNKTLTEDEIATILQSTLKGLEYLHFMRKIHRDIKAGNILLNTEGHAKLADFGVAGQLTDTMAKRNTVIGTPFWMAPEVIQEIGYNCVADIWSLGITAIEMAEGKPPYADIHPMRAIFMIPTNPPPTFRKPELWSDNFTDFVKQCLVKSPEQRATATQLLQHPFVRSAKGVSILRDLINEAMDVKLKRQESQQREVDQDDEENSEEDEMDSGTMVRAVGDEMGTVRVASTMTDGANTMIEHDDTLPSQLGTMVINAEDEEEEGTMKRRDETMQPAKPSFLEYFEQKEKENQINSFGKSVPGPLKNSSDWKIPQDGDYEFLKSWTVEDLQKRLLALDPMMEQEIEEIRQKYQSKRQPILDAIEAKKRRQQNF
# MST3 = MST3 (Homo sapiens, UniProt Q9Y6E0)
# MST3, sequence (Q9Y6E0 whole entry): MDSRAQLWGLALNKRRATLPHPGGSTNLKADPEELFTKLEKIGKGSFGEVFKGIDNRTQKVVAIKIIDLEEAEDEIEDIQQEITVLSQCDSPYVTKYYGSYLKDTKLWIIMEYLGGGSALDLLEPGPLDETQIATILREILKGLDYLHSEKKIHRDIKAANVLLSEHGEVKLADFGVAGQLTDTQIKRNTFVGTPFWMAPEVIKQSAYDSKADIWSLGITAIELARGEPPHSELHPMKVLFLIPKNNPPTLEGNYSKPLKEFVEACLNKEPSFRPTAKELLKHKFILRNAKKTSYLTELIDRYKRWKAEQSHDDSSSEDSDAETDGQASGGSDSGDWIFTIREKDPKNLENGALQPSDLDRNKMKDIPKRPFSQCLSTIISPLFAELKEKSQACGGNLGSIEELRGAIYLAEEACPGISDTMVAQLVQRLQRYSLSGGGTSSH
# SRPK1, sequence (Q96SB4 whole entry): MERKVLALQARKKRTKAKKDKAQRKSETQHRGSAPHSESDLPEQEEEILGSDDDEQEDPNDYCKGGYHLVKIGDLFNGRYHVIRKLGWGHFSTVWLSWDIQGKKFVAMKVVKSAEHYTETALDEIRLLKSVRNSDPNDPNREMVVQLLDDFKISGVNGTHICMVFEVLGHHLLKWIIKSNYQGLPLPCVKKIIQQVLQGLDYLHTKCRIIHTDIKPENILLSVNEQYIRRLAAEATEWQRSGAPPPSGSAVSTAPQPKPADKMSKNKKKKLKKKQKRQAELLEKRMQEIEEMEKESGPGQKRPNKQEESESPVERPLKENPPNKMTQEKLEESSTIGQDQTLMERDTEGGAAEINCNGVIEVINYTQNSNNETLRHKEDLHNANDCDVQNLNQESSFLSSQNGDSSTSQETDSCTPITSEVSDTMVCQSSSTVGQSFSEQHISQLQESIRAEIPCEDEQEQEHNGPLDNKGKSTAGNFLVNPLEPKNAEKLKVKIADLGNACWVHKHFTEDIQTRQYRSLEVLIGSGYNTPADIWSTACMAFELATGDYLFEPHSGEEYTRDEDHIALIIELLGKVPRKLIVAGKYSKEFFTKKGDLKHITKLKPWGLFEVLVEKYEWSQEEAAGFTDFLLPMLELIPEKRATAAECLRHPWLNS
# SRC, sequence (P12931 whole entry): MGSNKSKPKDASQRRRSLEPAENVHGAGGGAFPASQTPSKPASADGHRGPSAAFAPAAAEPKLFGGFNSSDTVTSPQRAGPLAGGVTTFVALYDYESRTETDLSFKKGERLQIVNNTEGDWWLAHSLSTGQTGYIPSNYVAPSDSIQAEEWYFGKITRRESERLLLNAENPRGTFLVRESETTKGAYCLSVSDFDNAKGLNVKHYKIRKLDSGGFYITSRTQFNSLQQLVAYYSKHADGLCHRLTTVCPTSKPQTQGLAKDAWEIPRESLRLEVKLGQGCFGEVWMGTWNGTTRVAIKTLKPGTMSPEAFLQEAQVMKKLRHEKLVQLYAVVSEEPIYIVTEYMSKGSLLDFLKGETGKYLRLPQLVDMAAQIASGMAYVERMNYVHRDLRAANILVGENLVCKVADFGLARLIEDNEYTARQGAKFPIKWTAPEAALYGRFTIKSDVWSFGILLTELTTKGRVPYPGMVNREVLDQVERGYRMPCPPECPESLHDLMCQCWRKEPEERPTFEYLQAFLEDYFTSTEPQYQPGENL
# MST4, sequence (Q9P289 whole entry): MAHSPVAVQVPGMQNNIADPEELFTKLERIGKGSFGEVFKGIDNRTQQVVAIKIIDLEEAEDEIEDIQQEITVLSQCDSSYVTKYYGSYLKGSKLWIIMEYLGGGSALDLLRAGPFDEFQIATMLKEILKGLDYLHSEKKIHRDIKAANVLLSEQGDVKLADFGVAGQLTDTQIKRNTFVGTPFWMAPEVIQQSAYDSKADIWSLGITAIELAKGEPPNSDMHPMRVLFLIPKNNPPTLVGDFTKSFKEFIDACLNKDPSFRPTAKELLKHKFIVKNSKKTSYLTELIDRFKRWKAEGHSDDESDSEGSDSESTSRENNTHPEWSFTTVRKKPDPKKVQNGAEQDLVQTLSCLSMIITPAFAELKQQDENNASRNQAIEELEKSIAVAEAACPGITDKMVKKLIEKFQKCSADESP
# MARK3, sequence (P27448 whole entry): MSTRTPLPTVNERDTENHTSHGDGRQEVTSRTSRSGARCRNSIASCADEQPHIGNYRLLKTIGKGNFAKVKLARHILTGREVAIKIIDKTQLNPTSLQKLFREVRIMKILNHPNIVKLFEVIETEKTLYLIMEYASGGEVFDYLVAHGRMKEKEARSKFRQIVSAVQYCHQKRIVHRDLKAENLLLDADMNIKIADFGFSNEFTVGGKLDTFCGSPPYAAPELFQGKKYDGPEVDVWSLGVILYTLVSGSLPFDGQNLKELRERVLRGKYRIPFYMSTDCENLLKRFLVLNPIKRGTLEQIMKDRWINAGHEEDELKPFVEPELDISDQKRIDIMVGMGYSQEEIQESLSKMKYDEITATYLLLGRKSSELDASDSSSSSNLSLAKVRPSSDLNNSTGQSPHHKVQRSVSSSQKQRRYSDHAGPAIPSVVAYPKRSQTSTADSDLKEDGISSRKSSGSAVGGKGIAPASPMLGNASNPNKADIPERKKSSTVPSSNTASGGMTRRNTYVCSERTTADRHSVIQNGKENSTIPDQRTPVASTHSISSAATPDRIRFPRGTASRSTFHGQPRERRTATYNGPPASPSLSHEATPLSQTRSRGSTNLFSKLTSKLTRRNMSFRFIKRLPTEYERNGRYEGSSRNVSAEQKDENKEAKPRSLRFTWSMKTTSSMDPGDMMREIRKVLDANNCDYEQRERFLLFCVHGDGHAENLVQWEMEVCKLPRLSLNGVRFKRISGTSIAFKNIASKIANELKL
# GSK3B, sequence (P49841 whole entry): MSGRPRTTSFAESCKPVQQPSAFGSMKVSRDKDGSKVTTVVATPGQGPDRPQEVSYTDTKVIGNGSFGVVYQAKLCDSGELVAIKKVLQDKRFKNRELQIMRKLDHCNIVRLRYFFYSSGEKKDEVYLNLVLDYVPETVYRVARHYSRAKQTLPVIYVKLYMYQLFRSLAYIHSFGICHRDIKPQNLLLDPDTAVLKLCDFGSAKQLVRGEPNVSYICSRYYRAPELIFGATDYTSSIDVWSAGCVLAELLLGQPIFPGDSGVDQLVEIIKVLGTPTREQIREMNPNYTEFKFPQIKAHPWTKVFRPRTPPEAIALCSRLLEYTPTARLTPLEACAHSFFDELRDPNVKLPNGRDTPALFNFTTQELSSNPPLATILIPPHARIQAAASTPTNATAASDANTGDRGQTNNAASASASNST
dTm MST4 (MST4) [°C],dTm MST2 (MST2) [°C],dTm MST1 (MST1) [°C],dTm MST3 (MST3) [°C],further results,SMILES
9.5,10.2,5.8,13.0,ΔTm 28 (FECH): 10.6 °C; ΔTm 28 (GSK3B): 0.3 °C; ΔTm 28 (SRPK1): 0.1 °C; ΔTm 28 (MARK3): 3.8 °C; ΔTm 28 (ULK3): 6.5 °C; ΔTm 28 (SRC): 3.4 °C,"Cc1cccc(-c2ccc(-c3cc4cnc(Nc5cc(C(F)(F)F)ccc5C)nc4n(CCCCN)c3=O)c(Cl)c2)n1 [compound 28, 8-(4-Aminobutyl)-6-(2-chloro-4-(6-methylpyridin-2-yl)phenyl)-2-((2-methyl-5-(trifluoromethyl)phenyl)amino)pyrido[2,3-d]pyrimidin-7(8H)-one]"
8.1,4.6,2.1,10.6,ΔTm MR24 (24) (SRPK1): -0.1 °C; ΔTm MR24 (24) (ULK3): 7.2 °C; ΔTm MR24 (24) (SRC): 0.0 °C,"Cc1cccc(-c2ccc(-c3cc4cnc(NC(CO)CO)nc4n(CCCCN)c3=O)c(Cl)c2)n1 [compound 24, 8-(4-Aminobutyl)-6-(2-chloro-4-(6-methylpyridin-2-yl)phenyl)-2-((1,3-dihydroxypropan-2-yl)amino)pyrido[2,3-d]pyrimidin-7(8H)-one]"
9.7,7.2,4.9,12.2,ΔTm 25 (SRPK1): 0.1 °C; ΔTm 25 (ULK3): 11.1 °C; ΔTm 25 (SRC): 1.0 °C,"Cc1cccc(-c2ccc(-c3cc4cnc(NCCCc5ccc(N)cc5)nc4n(CCCCN)c3=O)c(Cl)c2)n1 [compound 25, 8-(4-Aminobutyl)-2-((3-(4-aminophenyl)propyl)amino)-6-(2-chloro-4-(6-methylpyridin-2-yl)phenyl)pyrido[2,3-d]pyrimidin-7(8H)-one]"
–,–,–,–,ΔTm 22 (SRPK1): -0.2 °C; ΔTm 22 (ULK3): 9.7 °C; ΔTm 22 (SRC): 0.6 °C,"CNc1ncc2cc(-c3ccc(-c4cccc(C)n4)cc3Cl)c(=O)n(CCC3CCNCC3)c2n1 [compound 22, 6-(2-Chloro-4-(6-methylpyridin-2-yl)phenyl)-2-(methylamino)-8-(2-(piperidin-4-yl)ethyl)pyrido[2,3-d]pyrimidin-7(8H)-one]"
6.7,7.4,4.0,13.5,–,"COc1cc(N2CCN(C)CC2)ccc1Nc1ncc2cc(-c3ccc(-c4cccc(C)n4)cc3Cl)c(=O)n(CCCCN)c2n1 [compound 36, 8-(4-Aminobutyl)-6-(2-chloro-4-(6-methylpyridin-2-yl)phenyl)-2-((2-methoxy-4-(4-methylpiperazin-1-yl)phenyl)amino)pyrido[2,3-d]pyrimidin-7(8H)-one]"
9.2,7.5,4.6,11.0,–,"COc1cc(N2CCOCC2)ccc1Nc1ncc2cc(-c3ccc(-c4cccc(C)n4)cc3Cl)c(=O)n(CCCCN)c2n1 [compound 35, 8-(4-Aminobutyl)-6-(2-chloro-4-(6-methylpyridin-2-yl)phenyl)-2-((2-methoxy-4-morpholino-phenyl)amino)pyrido[2,3-d]pyrimidin-7(8H)-one]"
14.8,16.0,8.6,16.9,–,"Cc1cccc(-c2ccc(-c3cc4cnc(Nc5ccc(F)c(CO)c5)nc4n(CCCCN)c3=O)c(Cl)c2)n1 [compound 33, 8-(4-Aminobutyl)-6-(2-chloro-4-(6-methylpyridin-2-yl)phenyl)-2-((4-fluoro-3-(hydroxymethyl)phenyl)amino)pyrido[2,3-d]pyrimidin-7(8H)-one]"
15.3,15.8,8.7,16.7,ΔTm 30 (FECH): 0.5 °C; ΔTm 30 (GSK3B): 1.9 °C; ΔTm 30 (SRPK1): 0.0 °C; ΔTm 30 (MARK3): 11.6 °C; ΔTm 30 (ULK3): 14.9 °C; ΔTm 30 (SRC): 4.6 °C,"Cc1cccc(-c2ccc(-c3cc4cnc(Nc5ccc(CCCO)cc5)nc4n(CCCCN)c3=O)c(Cl)c2)n1 [compound 30, 8-(4-Aminobutyl)-6-(2-chloro-4-(6-methylpyridin-2-yl)phenyl)-2-((4-(3-hydroxypropyl)phenyl)amino)pyrido[2,3-d]pyrimidin-7(8H)-one]"
15.9,13.2,8.1,17.5,ΔTm 32 (FECH): 3.8 °C; ΔTm 32 (GSK3B): 2.2 °C; ΔTm 32 (SRPK1): 0.4 °C; ΔTm 32 (MARK3): 10.9 °C; ΔTm 32 (ULK3): 14.3 °C; ΔTm 32 (SRC): 5.1 °C,"Cc1cccc(-c2ccc(-c3cc4cnc(Nc5ccc(C)c(O)c5)nc4n(CCCCN)c3=O)c(Cl)c2)n1 [compound 32, 8-(4-Aminobutyl)-6-(2-chloro-4-(6-methylpyridin-2-yl)phenyl)-2-((3-hydroxy-4-methylphenyl)amino)pyrido[2,3-d]pyrimidin-7(8H)-one]"
–,–,–,–,ΔTm MRLW5 (20) (SRPK1): -0.2 °C; ΔTm MRLW5 (20) (ULK3): 8.6 °C; ΔTm MRLW5 (20) (SRC): 0.9 °C,"CNc1ncc2cc(-c3ccc(-c4cccc(C)n4)cc3Cl)c(=O)n(CCCCN)c2n1 [compound 20, MRLW5]"
10.6,5.9,3.6,11.6,ΔTm MR26 (26) (SRPK1): 0.1 °C; ΔTm MR26 (26) (ULK3): 6.7 °C; ΔTm MR26 (26) (SRC): 1.4 °C,"Cc1cccc(-c2ccc(-c3cc4cnc(NCCCN5CCOCC5)nc4n(CCCCN)c3=O)c(Cl)c2)n1 [compound 26, MR26]"
–,–,–,–,ΔTm 23 (SRPK1): -0.5 °C; ΔTm 23 (ULK3): 13.5 °C; ΔTm 23 (SRC): 1.2 °C,"CNc1ncc2cc(-c3ccc(-c4cccc(C)n4)cc3Cl)c(=O)n(C[C@H]3CC[C@H](N)CC3)c2n1 [compound 23, 23]"
8.3,5.4,3.8,11.0,–,"COc1ccc(O)c(Nc2ncc3cc(-c4ccc(-c5cccc(C)n5)cc4Cl)c(=O)n(CCCCN)c3n2)c1 [compound 34, 8-(4-Aminobutyl)-6-(2-chloro-4-(6-methylpyridin-2-yl)phenyl)-2-((2-hydroxy-5-methoxy-phenyl)amino)pyrido[2,3-d]pyrimidin-7(8H)-one]"
